# In patent US20070032418A1, “Small-molecule inhibitors of angiogenin and rnases and in vivo and in vitro methods of using same” (Ambion, Inc, priority 2003, published 2007):
# Like-named read-outs stand apart in the source and are kept apart here.
# What was measured:
# MMLV RT RNase H = MMLV RT RNase H (Moloney murine leukemia virus, UniProt P03355); test: Inhibition of RT-based RNase H cleavage of RNA:DNA hybrid; type: biochemical; details: for % Cleavage: no inhibitor: 36%, 5 min at 37 C
# Method: As described above, Chembridge compound #467929 offered protection from several RNA-specific endonucleolytic activities. […] A 20-mer DNA oligonucleotide was asymmetrically annealed to a 1500 base synthetic RNA to create an RNA:DNA duplex substrate for RNase H. Reactions were initiated with 10 U of MMLV RT in 1×RT buffer (50 mM TrisCl pH 8.3, 75 mM KCl, 3 mM MgCl2, 5 mM DTT) containing 500 ng/ul RNA:DNA hybrid. All reactions contained 5% DMSO either with or without the small molecule RNase inhibitor. Samples were incubated for 5 min at 37 C, and quenched with EDTA. Products were resolved on an RNA LabChip. Cleavage products were observed as two equally represented RNA species of 1000 and 500 bases. Product length and yield were determined using the 2100 BioAnalyzer software (Agilent). Table 4 details the level of inhibition of MMLV RT RNase H that is observed as a function of the concentration of compounds 467929 and 227726.
# angiogenin (ANG) = angiogenin (ANG) (Homo sapiens, UniProt P03950); test: Inhibition of ANG ribonucleolytic activity, HPLC assay of oligonucleotide cleavage; type: biochemical
# Method: Reaction mixtures with and without test compounds were chromatographed on a Mono Q anion-exchange column with an NaCl gradient in 10 mM Tris, pH 8. […] This information was used to calculate kcat/Km values, which were then fitted to the equation (kcat/Km)i=(kcat/Km)0/[…], where (kcat/Km)i and (kcat/Km)0 are defined as the values in the presence and absence of inhibitor, respectively, and [I] is defined as the inhibitor concentration. At least four concentrations (in a range of about 10 μM-above 100 μM) were used in the final hit confirmation in order to distinguish all true hits.
# Chemical structures of selected compounds are shown in these Tables and in FIGS. 4 and 5.
# [1] = target: T1, bovine pancreatic RNase A (Bos taurus, UniProt P61823); test: Inhibition of bovine pancreatic RNase A (specificity versus ANG); type: biochemical
# T1 sequence (P61823 27-150): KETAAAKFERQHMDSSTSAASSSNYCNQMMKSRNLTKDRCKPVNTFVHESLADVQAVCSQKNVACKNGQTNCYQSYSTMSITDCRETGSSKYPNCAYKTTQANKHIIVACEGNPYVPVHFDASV
# [2] = system: PC-3 human prostate tumor cells; test: PC-3 tumor formation in athymic mice; type: in vivo; details: PC-3 s.c.
# Method: Compound NCI-65828 was identified by HTS as an ANG inhibitor. […] Each compound was administered 6 times per week, in doses of 40 μg, 8 μg, and 1.6 μg (about 2, 0.4 and 0.08 mg/kg/day). The compound was dissolved in DMSO, and control mice received a corresponding volume of DMSO (4%, 0.8% and 0%). Another control group received saline.
# Another in vivo mouse experiment was performed using 8 or 12 mice per group. The experimental group was administered PC-3 cells and NCI-65828, as intraperitoneal injections (40 μg and 8 μg). A control group of mice was administered PC-3 cells and a related compound that was known to be ineffective at inhibiting ANG enzymatic activity. Mice were evaluated for number of animals that remained tumor free as a function of time, at intervals of 3 days from days 14-42 following the initial injection.
# Concentrated stocks of inhibitors were prepared in dimethylsulfoxide (DMSO), and the inhibitors were diluted into phosphate-buffered saline (PBS); the final DMSO concentration for the 40 μg and 20 μg doses was 4% in PBS, and that for the 8 μg and 4 μg doses was 0.8% in PBS. Statistical significance (P values) was determined from Mantel-Cox tests performed on Kaplan-Meier survivor functions. Results for inhibitor-treated groups were compared to results obtained with the appropriate DMSO control groups. A positive control group of mice, administered antisense DNA specific for the ANG gene in PBS (no DMSO), was also included. ANG antisense DNA was shown previously to be extremely effective in this tumor model.
# Tumor cells from a human prostate cancer (PC-3) were injected subcutaneously (s.c.) in the shoulder of 6-7 week old athymic (nude) mice on day 0. Treatment with the indicated amount of inhibitor (in 100 μL) was given subcutaneously in the same area as the cells, 6 times per week, with the first injection 5-10 minutes prior to injection of the cells. The total dosage was 0.4 mg to 2 mg per kg per day.
# E. coli RNase I = E. coli RNase I (Escherichia coli, UniProt P21338); test: Intactness of total RNA challenged with purified RNase; type: biochemical; details: 100 uM inhibitor; E. coli RNase I 7 ng/ul; 100 ng/ul mouse liver total RNA, 23° C., 4 min
# [3] = 20 mM Hepes, 100 mM NaCl, pH 7.0, 37° C., read-out: Ki for inhibition of the ribonucleolytic activity of angiogenin
# [4] = inhibition of ANG-catalyzed cleavage of an RNA oligonucleotide, 20 mM Hepes, 100 mM NaCl, 37° C., read-out: KI
# Chain of angiogenin (ANG) (P03950 25-147): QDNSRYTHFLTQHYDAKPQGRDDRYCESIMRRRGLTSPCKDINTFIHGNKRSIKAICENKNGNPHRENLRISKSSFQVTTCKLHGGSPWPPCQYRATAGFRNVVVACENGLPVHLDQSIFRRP
# Chain of E. coli RNase I (P21338 24-268): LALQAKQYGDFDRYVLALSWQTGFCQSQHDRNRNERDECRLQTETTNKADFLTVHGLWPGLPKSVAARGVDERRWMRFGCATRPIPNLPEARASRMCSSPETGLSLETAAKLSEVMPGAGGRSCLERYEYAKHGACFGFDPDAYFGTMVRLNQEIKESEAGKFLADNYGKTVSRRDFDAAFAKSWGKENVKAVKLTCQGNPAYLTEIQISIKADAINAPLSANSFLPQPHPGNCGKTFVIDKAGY
compound,measurement,setting,value
O=C(Nc1ccc(Cc2ccc(NC(=O)c3cccc([N+](=O)[O-])c3)c(C(=O)O)c2)cc1C(=O)O)c1cccc([N+](=O)[O-])c1 [CB-467929],IC50,MMLV RT RNase H,~20 µM
same,% Cleavage,MMLV RT RNase H; inhibitor 8 μM,42%
same,% Cleavage,MMLV RT RNase H; inhibitor 40 μM,8%
same,Ki,angiogenin (ANG); [3],24 µM
O=C(Nc1ccc(Cc2ccc(NC(=O)c3ccc(-c4ccccc4)cc3)c(C(=O)O)c2)cc1C(=O)O)c1ccc(-c2ccccc2)cc1 [CB-473872],Ki,angiogenin (ANG); [3],20 µM
same,Tighter binding to ANG than to RNase A,[1],2.3 fold
O=[N+]([O-])c1cc(/N=N/c2c(O)ccc3cc(S(=O)(=O)O)ccc23)c(O)c([N+](=O)[O-])c1 [NCI-65820],Ki,angiogenin (ANG); read-out: KI,25 µM
same,Tighter binding to ANG than to RNase A,[1],1.5 fold
"O=C(N/N=C(\c1ccccc1)c1ccncc1)c1ccccc1 [NCI-227726, N′-[phenyl(4-pyridinyl)methylene] benzohydrazide, reference compound]",% Cleavage,MMLV RT RNase H; inhibitor 100 μM,45%
same,% Cleavage,MMLV RT RNase H; inhibitor 524 μM,43%
same,% Cleavage,MMLV RT RNase H; inhibitor 1000 μM,47%
O=S(=O)(O)c1cc(S(=O)(=O)O)c2c(/N=N/c3ccccc3)c(O)ccc2c1 [Orange G],Ki,angiogenin (ANG); read-out: KI,83 µM
Nc1ccc2cc(S(=O)(=O)O)cc(O)c2c1N=Nc1ccccc1S(=O)(=O)c1ccccc1 [S321443],Ki,angiogenin (ANG); read-out: KI,> 500 µM
Nc1ccc(/N=N/c2ccc(-c3ccc(O)cc3)cc2)c2ccc(S(=O)(=O)O)cc12 [Tyger-65828],"Percentage of Tumor-Bearing Mice, day 14",[2]; 4 μg s.c. 6 times per week,8%
same,"Percentage of Tumor-Bearing Mice, day 17",[2]; 4 μg s.c. 6 times per week,42%
same,"Percentage of Tumor-Bearing Mice, day 21",[2]; 4 μg s.c. 6 times per week,67%
same,"Percentage of Tumor-Bearing Mice, day 24",[2]; 4 μg s.c. 6 times per week,100%
same,"Percentage of Tumor-Bearing Mice, day 32",[2]; 4 μg s.c. 6 times per week,100%
same,"Percentage of Tumor-Bearing Mice, day 35",[2]; 4 μg s.c. 6 times per week,100%
same,"Percentage of Tumor-Bearing Mice, day 14",[2]; 8 μg s.c. 6 times per week,0%
same,"Percentage of Tumor-Bearing Mice, day 17",[2]; 8 μg s.c. 6 times per week,45%
same,"Percentage of Tumor-Bearing Mice, day 21",[2]; 8 μg s.c. 6 times per week,55%
same,"Percentage of Tumor-Bearing Mice, day 24",[2]; 8 μg s.c. 6 times per week,82%
same,"Percentage of Tumor-Bearing Mice, day 32",[2]; 8 μg s.c. 6 times per week,91%
same,"Percentage of Tumor-Bearing Mice, day 35",[2]; 8 μg s.c. 6 times per week,100%
same,"Percentage of Tumor-Bearing Mice, day 14",[2]; 20 μg s.c. 6 times per week,0%
same,"Percentage of Tumor-Bearing Mice, day 17",[2]; 20 μg s.c. 6 times per week,25%
same,"Percentage of Tumor-Bearing Mice, day 21",[2]; 20 μg s.c. 6 times per week,33%
same,"Percentage of Tumor-Bearing Mice, day 24",[2]; 20 μg s.c. 6 times per week,92%
same,"Percentage of Tumor-Bearing Mice, day 32",[2]; 20 μg s.c. 6 times per week,100%
same,"Percentage of Tumor-Bearing Mice, day 35",[2]; 20 μg s.c. 6 times per week,100%
same,"Percentage of Tumor-Bearing Mice, day 14",[2]; 40 μg s.c. 6 times per week,8%
same,"Percentage of Tumor-Bearing Mice, day 17",[2]; 40 μg s.c. 6 times per week,33%
same,"Percentage of Tumor-Bearing Mice, day 21",[2]; 40 μg s.c. 6 times per week,33%
same,"Percentage of Tumor-Bearing Mice, day 24",[2]; 40 μg s.c. 6 times per week,83%
same,"Percentage of Tumor-Bearing Mice, day 32",[2]; 40 μg s.c. 6 times per week,92%
same,"Percentage of Tumor-Bearing Mice, day 35",[2]; 40 μg s.c. 6 times per week,100%
same,"Time of appearance of tumors (Example 3, Table 1)",[2]; treatment s.c. 6 times per week,delayed considerably the time of appearance of tumors
same,Ki for inhibition of the ribonucleolytic activity of angiogenin,"angiogenin (ANG); 20 mM Hepes, 100 mM NaCl, pH 7.0, 37° C.",indistinguishable from that of the NCI compound
CC(=O)Nc1ccc(/N=N/c2c(N)ccc3cc(S(=O)(=O)O)cc(O)c23)c(S(=O)(=O)O)c1 [acid red 37],Ki,angiogenin (ANG); read-out: KI,70 µM
CC(=O)Nc1ccc(N=Nc2c(S(=O)(=O)O)cc3cc(S(=O)(=O)O)cc(NC(C)=O)c3c2O)cc1 [acid violet 7],Ki,angiogenin (ANG); [4],71 µM
Nc1ccc2cc(S(=O)(=O)O)cc(O)c2c1/N=N/c1ccc(-c2ccc(/N=N/c3ccc(O)c(C(=O)O)c3)cc2)cc1 [direct red 1],Ki,angiogenin (ANG); read-out: KI,14 µM
Nc1ccc2cc(S(=O)(=O)O)cc(O)c2c1N=Nc1ccc(-c2ccc(N=Nc3cc(S(=O)(=O)O)c4ccccc4c3N)cc2)cc1 [direct red 13],Ki,angiogenin (ANG); read-out: KI,112 µM
O=S(=O)(O)c1cc(S(=O)(=O)O)c2c(/N=N/c3ccc(S(=O)(=O)O)c4ccccc34)c(O)ccc2c1 [new coccine],Ki,angiogenin (ANG); read-out: KI,69 µM
Cc1cc(-c2ccc(/N=N/c3c(N)ccc4cc(S(=O)(=O)O)ccc34)c(C)c2)ccc1N [prBZBP],Ki,angiogenin (ANG); read-out: KI,20 µM
O=S(=O)(O)c1ccc(/N=N/c2c(O)ccc3cc(S(=O)(=O)O)ccc23)cc1 [sunset yellow],Ki,angiogenin (ANG); read-out: KI,85 µM
"Cc1ccc(C(=O)Nc2ccc(S(=O)(=O)O)c3cc(S(=O)(=O)O)cc(S(=O)(=O)O)c23)cc1NC(=O)c1cccc(NC(=O)Nc2cccc(C(=O)Nc3cc(C(=O)Nc4ccc(S(=O)(=O)O)c5cc(S(=O)(=O)O)cc(S(=O)(=O)O)c45)ccc3C)c2)c1 [suramin, reference compound]",Ki,angiogenin (ANG); read-out: KI,10 µM
Cc1cc(S(=O)(=O)O)ccc1N=c1ccc2c(-c3ccccc3C(=O)O)c3ccc(Nc4ccccc4C)cc3oc-2c1 [violamine R],Ki,angiogenin (ANG); read-out: KI,107 µM
Cc1ccc(/N=N/c2c(O)c(S(=O)(=O)O)cc3cc(S(=O)(=O)O)ccc23)c(C)c1 [xylidene ponceau 2R],Ki,angiogenin (ANG),49 µM
Benzopurpurin B,Ki,angiogenin (ANG); [3],5 µM
same,Ki,angiogenin (ANG); [4],5 µM
same,Protection of total RNA from degradation,E. coli RNase I,significant protection from RNA degradation
cefsulodin [reference compound],Ki,angiogenin (ANG); [4],201 µM
eriochrome black T,Ki,angiogenin (ANG); [4],50 µM
